The first assay concerns the target T1, HIF-PH2 (EGLN1) (Homo sapiens, UniProt Q9GZT9).
T1 construct: made in house; host or cells: insect Hi5 cells
The experiment in a line: HIF-PH assay (14CO2 capture, peptide-dependent turnover). In kind it is biochemical. To be noted: Concentration 22.22 μM. From the text:
Ketoglutaric acid α-[1-^14C]-sodium salt, alpha-ketoglutaric acid sodium salt, and HPLC purified peptide may be obtained from commercial sources, e.g., Perkin-Elmer (Wellesley Mass.), Sigma-Aldrich, and SynPep Corp. (Dublin Calif.), respectively. Peptides for use in the assay may be fragments of HIFα as described above or as disclosed in International Publication WO 2005/118836, incorporated by reference herein. For example, a HLF peptide for use in the HIF-PH assay is [methoxycoumarin]-DLDLEALAPYIPADDDFQL-amide. HIF-PH, e.g., HIF-PH2 (EGLN1), can be expressed in, e.g., insect Hi5 cells, and partially purified, e.g., through a SP ion exchange chromatography column. Enzyme activity is determined by capturing ^14CO2 using an assay described by Kivirikko and Myllyla (1982, Methods Enzymol. 82:245-304). Assay reactions contain 50 mM HEPES (pH 7.4), 100 μM α-ketoglutaric acid sodium salt, 0.30 μCi/mL ketoglutaric acid α-[1-^14C]-sodium salt, 40 μM FeSO4, 1 mM ascorbate, 1541.8 units/mL Catalase, with or without 50 μM peptide substrate and various concentrations of compound of the invention. Reactions are initiated by addition of HIF-PH enzyme.
The peptide-dependent percent turnover is calculated by subtracting percent turnover in the absence of peptide from percent turnover in the presence of substrate peptide. Percent inhibition and IC50 are calculated using peptide-dependent percent turnover at given inhibitor concentrations. Calculation of IC50 values for each inhibitor is conducted using GraFit software (Erithacus Software Ltd., Surrey UK). […]
T1 sequence (Q9GZT9 whole entry, species assumed): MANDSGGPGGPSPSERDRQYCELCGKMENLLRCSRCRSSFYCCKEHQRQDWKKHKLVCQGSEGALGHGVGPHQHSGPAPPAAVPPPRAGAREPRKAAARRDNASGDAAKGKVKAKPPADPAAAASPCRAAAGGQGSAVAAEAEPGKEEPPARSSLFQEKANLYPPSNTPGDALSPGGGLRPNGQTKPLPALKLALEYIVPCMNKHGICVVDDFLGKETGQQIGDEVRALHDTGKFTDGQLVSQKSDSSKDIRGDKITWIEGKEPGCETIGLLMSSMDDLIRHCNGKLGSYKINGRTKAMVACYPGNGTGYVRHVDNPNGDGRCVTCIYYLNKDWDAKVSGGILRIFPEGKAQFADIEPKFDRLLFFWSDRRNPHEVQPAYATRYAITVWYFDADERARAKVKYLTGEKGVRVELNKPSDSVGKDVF
Regarding `C#Cc1nc(C(=O)NCC(=O)O)c(O)c2c(-c3ccc(Cl)cc3)noc12` [Example 28, {[3-(4-Chloro-phenyl)-7-ethynyl-4-hydroxy-isoxazolo[5,4-c]pyridine-5-carbonyl]-amino}-acetic acid], at 22.22 µM the inhibition was 96.7%.
The same measure, in the same setting: to `O=C(O)CNC(=O)c1ncc2onc(-c3ccc(-c4ccccc4)cc3)c2c1O` [Example 29, [(3-Biphenyl-4-yl-4-hydroxy-isoxazolo[5,4-c]pyridine-5-carbonyl)-amino]-acetic acid] belongs 99.4%; to `O=C(O)CNC(=O)c1ncc2onc(-c3cccc(OC(F)(F)F)c3)c2c1O` [Example 32, {[4-Hydroxy-3-(3-trifluoromethoxy-phenyl)-isoxazolo[5,4-c]pyridine-5-carbonyl]-amino}-acetic acid], 99.1%.
Same read-out and setting: to `O=C(O)CNC(=O)c1nc(-c2cccnc2)c2onc(-c3ccccc3)c2c1O` [Example 33, [(4-Hydroxy-3-phenyl-7-pyridin-3-yl-isoxazolo[5,4-c]pyridine-5-carbonyl)-amino]-acetic acid] belongs 99.6%; to `O=C(O)CNC(=O)c1ncc2onc(-c3ccc(C(F)(F)F)cc3)c2c1O` [Example 34, {[4-Hydroxy-3-(4-trifluoromethyl-phenyl)-isoxazolo[5,4-c]pyridine-5-carbonyl]-amino}-acetic acid], 97.8%.
For `O=C(O)CNC(=O)c1ncc2onc(-c3ccccc3OC(F)(F)F)c2c1O` [Example 35, {[4-Hydroxy-3-(2-trifluoromethoxy-phenyl)-isoxazolo[5,4-c]pyridine-5-carbonyl]-amino}-acetic acid], the inhibition – broadly, the change of the read-out against control, counted positive when it falls – at 22.22 µM stood at 86.3%.
The same measure, in the same setting: the value for `O=C(O)CNC(=O)c1nc(-c2ccncc2)c2onc(-c3ccccc3)c2c1O` [Example 36, [(4-Hydroxy-3-phenyl-7-pyridin-4-yl-isoxazolo[5,4-c]pyridine-5-carbonyl)-amino]-acetic acid] was 98.5%; that for `O=C(O)CNC(=O)c1nc(-c2ccccn2)c2onc(-c3ccccc3)c2c1O` [Example 37, [(4-Hydroxy-3-phenyl-7-pyridin-2-yl-isoxazolo[5,4-c]pyridine-5-carbonyl)-amino]-acetic acid] was 99.6%.
For the compound `O=C(O)CNC(=O)c1nc(C(F)(F)F)c2onc(-c3ccccc3)c2c1O` [Example 38, [(4-Hydroxy-3-phenyl-7-trifluoromethyl-isoxazolo[5,4-c]pyridine-5-carbonyl)-amino]-acetic acid], the inhibition at 22.22 µM was 97.8%.
The same measure, in the same setting: the value for `O=C(O)CNC(=O)c1ncc2onc(-c3ccc(OC(F)(F)F)cc3)c2c1O` [Example 39, {[4-Hydroxy-3-(4-trifluoromethoxy-phenyl)-isoxazolo[5,4-c]pyridine-5-carbonyl]-amino}-acetic acid] was 98.7%.
In turn, `CC(C)(C)c1ccc(-c2noc3cnc(C(=O)NCC(=O)O)c(O)c23)cc1` [Example 40, {[3-(4-tert-Butyl-phenyl)-4-hydroxy-isoxazolo[5,4-c]pyridine-5-carbonyl]-amino}-acetic acid] displayed an inhibition at 22.22 µM of 98.8%.
Same read-out and setting: to `O=C(O)CNC(=O)c1nc(Br)c2onc(-c3ccccc3)c2c1O` [Example 41, [(7-Bromo-4-hydroxy-3-phenyl-isoxazolo[5,4-c]pyridine-5-carbonyl)-amino]-acetic acid] belongs 99.4%; to `COc1ccc(-c2noc3c(O)c(C(=O)NCC(=O)O)nc(-c4ccccc4)c23)cc1` [Example 55, {[7-Hydroxy-3-(4-methoxy-phenyl)-4-phenyl-isoxazolo[4,5-c]pyridine-6-carbonyl]-amino}-acetic acid], 98.9%.
On to `O=C(O)CNC(=O)c1nc(C#Cc2ccccc2)c2c(-c3ccccc3)noc2c1O` [Example 57, [(7-Hydroxy-3-phenyl-4-phenylethynyl-isoxazolo[4,5-c]pyridine-6-carbonyl)-amino]-acetic acid], for which the inhibition at 22.22 µM was determined as 98.6%.

The same assay, now with this note: Concentration 200.00 μM.
Consider `C[C@H](NC(=O)c1ncc2onc(-c3ccccc3)c2c1O)C(=O)O` [Example 30, 2-[(4-Hydroxy-3-phenyl-isoxazolo[5,4-c]pyridine-5-carbonyl)-amino]-(S)-propionic acid], for which 200 µM produced 100% inhibition.
As to `C[C@@H](NC(=O)c1ncc2onc(-c3ccccc3)c2c1O)C(=O)O` [Example 31, 2-[(4-Hydroxy-3-phenyl-isoxazolo[5,4-c]pyridine-5-carbonyl)-amino]-(R)-propionic acid], the inhibition at 200 µM was found to be 61%.
On the same count and under the same terms, the value for `O=C(O)CNC(=O)c1ncc2c(-c3ccccc3)noc2c1O` [Example 42, [(7-Hydroxy-3-phenyl-isoxazolo[4,5-c]pyridine-6-carbonyl)-amino]-acetic acid] was 98.4%; that for `C[C@H](NC(=O)c1ncc2c(-c3ccccc3)noc2c1O)C(=O)O` [Example 43, (S)-2-[(7-Hydroxy-3-phenyl-isoxazolo[4,5-c]pyridine-6-carbonyl)amino]-propionic acid] was 98.7%; that for `C[C@@H](NC(=O)c1ncc2c(-c3ccccc3)noc2c1O)C(=O)O` [Example 44, (R)-2-[(7-Hydroxy-3-phenyl-isoxazolo[4,5-c]pyridine-6-carbonyl)-amino]-propionic acid] was 82.2%.
The same measure, in the same setting: to `O=C(O)CNC(=O)c1ncc2c(-c3ccc(F)cc3)noc2c1O` [Example 45, {[3-(4-Fluoro-phenyl)-7-hydroxy-isoxazolo[4,5-c]pyridine-6-carbonyl]-amino}-acetic acid] belongs 98.6%; to `COc1ccc(-c2noc3c(O)c(C(=O)NCC(=O)O)ncc23)cc1` [Example 46, {[7-Hydroxy-3-(4-methoxy-phenyl)-isoxazolo[4,5-c]pyridine-6-carbonyl]-amino}-acetic acid], 99.4%.
Still for that read-out and setting: the value for `O=C(O)CNC(=O)c1ncc2c(-c3cccs3)noc2c1O` [Example 47, [(7-Hydroxy-3-thiophen-2-yl-isoxazolo[4,5-c]pyridine-6-carbonyl)-amino]-acetic acid] was 99%.
The compound `O=C(O)CNC(=O)c1ncc2c(-c3ccncc3)noc2c1O` [Example 48, [(7-Hydroxy-3-pyridin-4-yl-isoxazolo[4,5-c]pyridine-6-carbonyl)-amino]-acetic acid] came in with an inhibition at 200 µM of 100%.
Compound `O=C(O)CNC(=O)c1ncc2c(-c3ccc(Br)o3)noc2c1O` [Example 49, {[3-(5-Bromo-furan-2-yl)-7-hydroxy-isoxazolo[4,5-c]pyridine-6-carbonyl]-amino}-acetic acid] registered an inhibition at 200 µM of 96.3%.
`Cc1nc(C(=O)NCC(=O)O)c(O)c2onc(-c3ccccc3)c12` [Example 50, [(7-Hydroxy-4-methyl-3-phenyl-isoxazolo[4,5-c]pyridine-6-carbonyl)-amino]-acetic acid]: the inhibition at 200 µM turned out to be 99.5%.
Still for that read-out and setting: to `N#Cc1nc(C(=O)NCC(=O)O)c(O)c2onc(-c3cccs3)c12` [Example 51, [(4-Cyano-7-hydroxy-3-thiophen-2-yl-isoxazolo[4,5-c]pyridine-6-carbonyl)-amino]-acetic acid] belongs 98.8%; to `N#Cc1nc(C(=O)NCC(=O)O)c(O)c2onc(-c3ccc(F)cc3)c12` [Example 52, {[4-Cyano-3-(4-fluoro-phenyl)-7-hydroxy-isoxazolo[4,5-c]pyridine-6-carbonyl]-amino}-acetic acid], 98.6%.
Same read-out and setting: the value for `COc1ccc(-c2noc3c(O)c(C(=O)NCC(=O)O)nc(C#N)c23)cc1` [Example 53, {[4-Cyano-7-hydroxy-3-(4-methoxy-phenyl)-isoxazolo[4,5-c]pyridine-6-carbonyl]-amino}-acetic acid] was 99.4%; that for `N#Cc1nc(C(=O)NCC(=O)O)c(O)c2onc(-c3ccc(Br)o3)c12` [Example 54, {[3-(5-Bromo-furan-2-yl)-4-cyano-7-hydroxy-isoxazolo[4,5-c]pyridine-6-carbonyl]-amino}-acetic acid] was 99.9%; that for `COc1ccc(-c2noc3c(O)c(C(=O)NCC(=O)O)nc(C)c23)cc1` [Example 56, {[7-Hydroxy-3-(4-methoxy-phenyl)-4-methyl-isoxazolo[4,5-c]pyridine-6-carbonyl]-amino}-acetic acid] was 98.9%.
On to `C#Cc1nc(C(=O)NCC(=O)O)c(O)c2onc(-c3ccccc3)c12` [Example 58, [(4-Ethynyl-7-hydroxy-3-phenyl-isoxazolo[4,5-c]pyridine-6-carbonyl)-amino]-acetic acid], for which testing at 200 µM gave an inhibition of 100%.
Still for that read-out and setting: the value for `O=C(O)CNC(=O)c1nc(C2CC2)c2c(-c3cccs3)noc2c1O` [Example 59, [(4-Cyclopropyl-7-hydroxy-3-thiophen-2-yl-isoxazolo[4,5-c]pyridine-6-carbonyl)-amino]-acetic acid] was 99.3%; that for `COc1ccc(-c2noc3c(O)c(C(=O)NCC(=O)O)nc(Cn4cccn4)c23)cc1` [Example 60, {[7-Hydroxy-3-(4-methoxy-phenyl)-4-pyrazol-1-ylmethyl-isoxazolo[4,5-c]pyridine-6-carbonyl]-amino}-acetic acid] was 100%.

For the origin of these results see US8269008B2, “Oxazolopyridine and isoxazolopyridine derivatives for use in the treatment of HIF-mediated conditions” (FibroGen, Inc., priority 2007, dated 2012).
